# Where “and” joins values, the source holds several entries; their conditions need not be identical. Equal entries are not always repeated.
# How the values were obtained:
# [1] = system: patients with heavy menstrual bleeding and pain who had adenomyosis; test: Clinical study: 13 weeks oral 5 mg or 10 mg ulipristal in patients with adenomyosis (Example 1); type: in vivo, human
# Description: A double-blinded, randomized, placebo-controlled study evaluating the effect of long term (13 weeks) oral administration of 5 mg or 10 mg ulipristal in patients with heavy menstrual bleeding and pain included 5 patients who had adenomyosis.
# These patients included women 36 years of age or older diagnosed by MRI with adenomyosis but no evidence of uterine fibroid.
# The patients were randomized as follows: 1 patient received a daily placebo treatment (matching Esmya tablet appearance) and iron 80 mg/day, 2 patients received a daily dose of 5 mg ulipristal (Esmya®) and iron 80 mg/day and 2 patients received a daily dose of 10 mg ulipristal (Esmya®) and iron 80 mg/day for 13 weeks.
# Different parameters were assessed before treatment (Baseline) and after the end of treatment (13 weeks): • The PBAC score (Pictorial Blood Loss Assessment Chart) gives an estimation of the menstrual blood loss. This score was measured before treatment and continuing up to week 13 of treatment. Normal menstrual bleeding score is <75. Abnormal bleeding (menorrhagia) is characterized by a PBAC score >100. Higher the score, worse is the bleeding. • The Uterine volume was estimated before treatment (Baseline Uterine volume) and the % change in uterine volume was reported at the end of the treatment (week 13). • The SF-M P QPart A (short form of the Mc Gill Pain questionnaire) was used as a measure of the sensory, affective and intensity dimensions of pain. The pain was estimated before treatment and the change was reported at the end of the treatment (week 13). (NOTE: The lowest is the score, the better it is). • The SF-MPQ Part B (short form of the Mc Gill Pain questionnaire) wherein the pain is assessed with a visual analogue scale (VAS) before treatment and the change was reported at the end of the treatment (week 13). (NOTE: The lowest is the score, the better it is). • Discomfort questionnaire (disease specific quality of life questionnaire) estimating the quality of life before treatment and the change was reported at the end of the treatment (week 13). (NOTE: The lowest is the score, the better it is). • The level of Hb (Hemoglobin) was measured before treatment and at the end of the treatment. (NOTE: the higher it is, the better it is.) 3. Results
# [2] = system: patients with heavy menstrual bleeding and pain; test: Hepatobiliary Disorders and Liver Safety analysis (Example 3); type: in vivo, human
# Description: A double-blinded, randomized, study evaluating the effect of long term oral administration of 5 mg or 10 mg ulipristal in patients with heavy menstrual bleeding and pain. A Hepatobiliary Disorders and Liver Safety analysis was carried out for all patients. This summary table illustrates the increased number of subjects from the 3 treatment groups who had increased levels of AST, ALT and total bilirubin during the study.
# [3] = 5 mg/day + iron 80 mg/day, 13 weeks, patient 130/1368, adenomyosis
# [4] = 5 mg/day + iron 80 mg/day, 13 weeks, patient 142/1036, adenomyosis
# [5] = 10 mg/day + iron 80 mg/day, 13 weeks, patient 148/1427, adenomyosis
# [6] = 10 mg/day + iron 80 mg/day, 13 weeks, patient 154/1240, adenomyosis
# [7] = daily dose of 5 mg or 10 mg, examples 1 and 2
# [8] = Ulipristal 5 mg (n = 97), Week 5
# [9] = Ulipristal 5 mg (n = 97), Week 9
# [10] = Ulipristal 5 mg (n = 97), Week 13
# [11] = Ulipristal 5 mg (n = 97), Week 17
# [12] = Ulipristal 10 mg (n = 103), Week 5
# [13] = Ulipristal 10 mg (n = 103), Week 9
# [14] = Ulipristal 10 mg (n = 103), Week 13
# [15] = Ulipristal 10 mg (n = 103), Week 17
smiles,measurement,setting,value
"CC(=O)O[C@]1(C(C)=O)CC[C@H]2[C@@H]3CCC4=CC(=O)CCC4=C3[C@@H](c3ccc(N(C)C)cc3)C[C@@]21C [Ulipristal, 17α-acetoxy-11β-[4-N,N-dimethylamino-phenyl)-19-norpregna-4,9-diene-3,20-dione]",% change in uterine volume at week 13,[1]; [3],−21.5%
same,Change in PBAC,[1]; [3],−232
same,Discomfort questionnaire Change at Week 13,[1]; [3],−5
same,Hb at Week 13,[1]; [3],13.5 g/dL
same,PBAC at week 13,[1]; [3],0
same,SF-MPQ Part A Change at Week 13,[1]; [3],−5
same,SF-MPQ Part B (VAS) Change at Week 13,[1]; [3],−7
same,% change in uterine volume at week 13,[1]; [4],+0.4%
same,Change in PBAC,[1]; [4],−994
same,Discomfort questionnaire Change at Week 13,[1]; [4],−9
same,Hb at Week 13,[1]; [4],14 g/dL
same,PBAC at week 13,[1]; [4],0
same,SF-MPQ Part A Change at Week 13,[1]; [4],0
same,SF-MPQ Part B (VAS) Change at Week 13,[1]; [4],−6
same,"pain at 10 mg, both patients","[1]; 10 mg, both patients, adenomyosis",Very substantial improvement in pain
same,"pain at 10 mg, one of the patients","[1]; 10 mg, one of the two patients, adenomyosis",complete absence of pain
same,% change in uterine volume at week 13,[1]; [5],36.4%
same,Change in PBAC,[1]; [5],−624
same,Discomfort questionnaire Change at Week 13,[1]; [5],−20
same,Hb at Week 13,[1]; [5],13.6 g/dL
same,PBAC at week 13,[1]; [5],0
same,SF-MPQ Part A Change at Week 13,[1]; [5],−2
same,SF-MPQ Part B (VAS) Change at Week 13,[1]; [5],−43
same,% change in uterine volume at week 13,[1]; [6],−32.0%
same,Change in PBAC,[1]; [6],−536
same,Discomfort questionnaire Change at Week 13,[1]; [6],−12
same,Hb at Week 13,[1]; [6],12.1 g/dL
same,PBAC at week 13,[1]; [6],0
same,SF-MPQ Part A Change at Week 13,[1]; [6],−14
same,SF-MPQ Part B (VAS) Change at Week 13,[1]; [6],−93
same,PBAC score at the end of treatment (week 13),"[1]; all 4 patients treated with 5 mg or 10 mg, adenomyosis",0
same,pain as measured with the SF-MPQ Part B (VAS) compared to the placebo treated patient,"[1]; all four patients, 5 mg or 10 mg, 13 weeks, adenomyosis",improvements in pain
same,quality of life compared to the placebo treated patient,"[1]; all four patients, 5 mg or 10 mg, adenomyosis",substantial improvement in the quality of life
same,Hb at the end of the treatment,"[1]; all four patients, 5 mg or 10 mg, concomitant iron 80 mg once daily",increase in Hb
same,PBAC score at the end of the treatment,[1]; [7],amenorrhea
same,uterine volume at the end of treatment,[1]; [7],decrease in uterine volume
same,levels of Hb during the treatment,"[1]; daily dose of 5 mg or 10 mg, with or without concomitant iron",increased
same,% change in uterine volume at week 13,"[1]; individual ulipristal treated patients (5 mg or 10 mg), adenomyosis",+36.4% and +0.4% and −21.5% and −32%
same,"pain relief, 10 mg compared to 5 mg","[1]; patients treated at 10 mg vs patients that received 5 mg, adenomyosis",better pain relief
same,treatment related changes in liver function tests,"[2]; 5 mg or 10 mg, long term oral administration",no signals of any treatment related changes in liver function tests
same,"ALT High not CS, number (%) of subjects",[2]; [8],4 (4.1%)
same,"ALT Low not CS, number (%) of subjects",[2]; [8],0
same,"AST High not CS, number (%) of subjects",[2]; [8],6 (6.2%)
same,"AST Low not CS, number (%) of subjects",[2]; [8],0
same,"Total bilirubin High CS, number (%) of subjects",[2]; [8],0
same,"Total bilirubin High not CS, number (%) of subjects",[2]; [8],2 (2.1%)
same,"Total bilirubin Low not CS, number (%) of subjects",[2]; [8],0
same,"ALT High not CS, number (%) of subjects",[2]; [9],0
same,"ALT Low not CS, number (%) of subjects",[2]; [9],0
same,"AST High not CS, number (%) of subjects",[2]; [9],3 (3.1%)
same,"AST Low not CS, number (%) of subjects",[2]; [9],0
same,"Total bilirubin High not CS, number (%) of subjects",[2]; [9],3 (3.1%)
same,"Total bilirubin Low not CS, number (%) of subjects",[2]; [9],0
same,"ALT High not CS, number (%) of subjects",[2]; [10],1 (1.0%)
same,"ALT Low not CS, number (%) of subjects",[2]; [10],0
same,"AST High not CS, number (%) of subjects",[2]; [10],2 (2.1%)
same,"AST Low not CS, number (%) of subjects",[2]; [10],0
same,"Total bilirubin High not CS, number (%) of subjects",[2]; [10],3 (3.1%)
same,"Total bilirubin Low not CS, number (%) of subjects",[2]; [10],0
same,"ALT High CS, number (%) of subjects",[2]; [11],0
same,"ALT High not CS, number (%) of subjects",[2]; [11],2 (2.1%)
same,"ALT Low not CS, number (%) of subjects",[2]; [11],0
same,"AST High not CS, number (%) of subjects",[2]; [11],3 (3.1%)
same,"AST Low not CS, number (%) of subjects",[2]; [11],0
same,"Total bilirubin High not CS, number (%) of subjects",[2]; [11],2 (2.1%)
same,"Total bilirubin Low not CS, number (%) of subjects",[2]; [11],0
same,"subjects with elevations of both AST and ALT above 2×ULN, but <3×ULN for consecutive samples",[2]; Ulipristal 5 mg group,1 subject
same,"ALT High not CS, number (%) of subjects",[2]; [12],6 (5.8%)
same,"ALT Low not CS, number (%) of subjects",[2]; [12],0
same,"AST High not CS, number (%) of subjects",[2]; [12],6 (5.8%)
same,"AST Low not CS, number (%) of subjects",[2]; [12],0
same,"Total bilirubin High CS, number (%) of subjects",[2]; [12],0
same,"Total bilirubin High not CS, number (%) of subjects",[2]; [12],3 (2.9%)
same,"Total bilirubin Low not CS, number (%) of subjects",[2]; [12],0
same,"ALT High not CS, number (%) of subjects",[2]; [13],3 (2.9%)
same,"ALT Low not CS, number (%) of subjects",[2]; [13],0
same,"AST High not CS, number (%) of subjects",[2]; [13],3 (2.9%)
same,"AST Low not CS, number (%) of subjects",[2]; [13],0
same,"Total bilirubin High not CS, number (%) of subjects",[2]; [13],4 (3.9%)
same,"Total bilirubin Low not CS, number (%) of subjects",[2]; [13],0
same,"ALT High not CS, number (%) of subjects",[2]; [14],5 (4.9%)
same,"ALT Low not CS, number (%) of subjects",[2]; [14],0
same,"AST High not CS, number (%) of subjects",[2]; [14],4 (3.9%)
same,"AST Low not CS, number (%) of subjects",[2]; [14],0
same,"Total bilirubin High not CS, number (%) of subjects",[2]; [14],6 (5.8%)
same,"Total bilirubin Low not CS, number (%) of subjects",[2]; [14],0
same,"ALT High CS, number (%) of subjects",[2]; [15],0
same,"ALT High not CS, number (%) of subjects",[2]; [15],4 (3.9%)
same,"ALT Low not CS, number (%) of subjects",[2]; [15],0
same,"AST High not CS, number (%) of subjects",[2]; [15],4 (3.9%)
same,"AST Low not CS, number (%) of subjects",[2]; [15],0
same,"Total bilirubin High not CS, number (%) of subjects",[2]; [15],2 (1.9%)
same,"Total bilirubin Low not CS, number (%) of subjects",[2]; [15],0
same,"subjects with elevations of both AST and ALT above 2×ULN, but <3×ULN for consecutive samples",[2]; Ulipristal 10 mg group,2 subjects
same,liver toxicity based on Treatment Emergent Adverse Events (TEAEs),[2]; clinical studies,no evidence of liver toxicity
